According to patent US20230014907A1, “INHIBITORS OF APOL1 AND METHODS OF USING SAME” (Vertex Pharmaceuticals Incorporated, priority 2020, published 2023):

biological target: T1, G1 APOL1 (Homo sapiens, UniProt O14791, I384M/S342G); assay: Acute APOL1 Thallium Assay with Inducible Stable Clones of HEK 293 Cells; format: cell-based; conditions: HEK 293 inducible stable clones, G1 APOL1; read-out: Thallium Assay (IC50)
T1 construct: expressed in transfected cells
T1 sequence (O14791 28-398 S342G/I384M): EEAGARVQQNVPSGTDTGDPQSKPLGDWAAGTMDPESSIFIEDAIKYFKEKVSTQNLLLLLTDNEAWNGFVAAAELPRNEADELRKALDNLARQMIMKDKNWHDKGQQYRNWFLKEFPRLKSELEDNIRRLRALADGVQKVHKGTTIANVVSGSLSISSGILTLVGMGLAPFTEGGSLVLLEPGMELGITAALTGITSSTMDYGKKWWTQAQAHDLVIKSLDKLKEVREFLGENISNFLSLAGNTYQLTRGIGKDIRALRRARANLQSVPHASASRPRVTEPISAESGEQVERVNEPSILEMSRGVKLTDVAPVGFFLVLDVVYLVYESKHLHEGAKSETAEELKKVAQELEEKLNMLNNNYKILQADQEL
Excerpt: Acute APOL1 Thallium Assay with Inducible Stable Clones of HEK 293 Cells
Apolipoprotein L1 (APOL1) proteins form potassium-permeable cation pores in the plasma membrane. APOL1 risk variants (G1 and G2) induce greater potassium flux than G0 in HEK293 cells. This assay exploits the permeability of thallium (Tl+) through ligand-gated potassium channels. The dye produces a bright fluorescent signal upon binding to Tl+ conducted through potassium channels. The intensity of the Tl+ signal is proportional to the number of potassium channels in the open state. Therefore, it provides a functional indication of the potassium channel activities. During the initial dye-loading step, the Tl+ indicator dye as an acetoxymethyl (AM) ester enters the cells through passive diffusion. Cytoplasm esterases cleave the AM ester and relieve its active thallium-sensitive form. The cells are then stimulated with Tl+. The increase of fluorescence in the assay represents the influx of Tl+ into the cell specifically through the potassium channel (i.e. through APOL1 pores), providing a functional measurement of potassium channel/pore activity. The Thallium assay is conducted with cells expressing G1 APOL1.
APOL1 Cell Line (HEK T-Rex Stable Inducible Cell Line) • HEK T-Rex System • Tetracycline (Tet) inducible mammalian expression system. • Stably express the Tet repressor to regulate transcription. • Expression under the full-length CMV promoter. • APOL1 stable inducible cell line Clone used: G1 DC3.25
Tissue Culture Media • Cell Culture Medium • DMEM+10% FBS+P/S+5 μg/mL blasticidin+1 μg/mL puromycin. • 500 mL DMEM+55 mL FBS+5 mL P/S+280 μL blasticidin S HCl (10 mg/mL)+56 μL puromycin (10 mg/mL). • Cell Assay Medium • DMEM with 2% FBS+penicillin/streptomycin.
Instruments and Equipment • Nuaire cell culture hood, Cat. No. 540-600 • 37° C./5% CO2 incubator link to robotic arm, Liconic: STX110 • Molecular Devices FLIPR^Tetra High throughput cellular screening system, Cat. No. FT0324, Molecular Devices • ThermoFisher MultiDrop 384, Cat. No. 5840300 • Biotek Microfill, Cat. No. ASF1000A-4145 • BioRad TC10 cell counter, Cat. No. 145-0010
Cells Scaled Up from Frozen Vials • APOL1 G1 3.25 (HEK293 T-Rex) frozen vials: 5 million cells per vial • Step 1, Day 1: Defrost frozen vial into T-225. • Step 2, Day 5: (when 85% confluent): Split one T-225 at 3×10^6 cells per flask. • Step 3, Day 8: Splits cells to set up for the assay plates as described below.
T-Rex APOL1 HEK cells are split twice per week to keep the confluence state below 85% of the culture flask surface area. Cells can be kept until passage 25. • Cell Culture Medium • DMEM high glucose+10% FBS, +P/S, +5 μg/mL blasticidin, +1 μg/mL puromycin. • 500 mL DMEM, +55 mL FBS, +5 mL P/S, +280 μL blasticidin 10 mg/mL, +56 μL Puromycin 10 mg/mL. • Assay Media • Opti-MEM reduced serum medium from Invitrogen.
Preparation of Cell Assay Plates • Culture medium is removed from the x cm^2 T-flask by aspiration. • The cell monolayer is rinsed with PBS 1× at room temperature. PBS is removed by aspiration. • Cells are trypsinized using Trypsin. • The flasks are incubated at room temperature for 2-3 minutes. • Complete DMEM medium is then added. Cell suspension is then transferred to a 50 mL Falcon polypropylene tube. • Cells are then counted using a BioRad TC10 cell counter and the required amount of cells are centrifuged at 1200 RPM for 5 minutes. Required amount is 1.3×10^6 cells/mL APOL1 T-Rex HEK cells. • The pellet is suspended in the assay medium. • Using the MultiDrop, add 20 μL to each well (corresponds to 26000 cells total per well) of a 384-well black, transparent, flat bottom Poly-D coated plate. • Tetracycline as prepared in the following section is added to the cells before plating to induce APOL1 expression. • Plates are left at room temperature for 20 to 30 minutes before incubation at 37° C. and 5% CO2. […]

First: O=C(CCN1CCCC1=O)NCCc1c(-c2ccc(F)cc2)[nH]c2c(F)cc(F)cc12 [Compound 370]
Second: NCC(=O)NCCc1c(-c2ccc(F)cc2)[nH]c2c(F)cc(F)cc12 [Compound 366]
The IC50 of the first is higher: greater than 1000 nM for the first, 250 to 1000 nM for the second.

`O=C(Cn1cncn1)NCCc1c(-c2ccc(F)cc2)[nH]c2c(F)cc(F)cc12` [Compound 386] and `O=C(Cn1cccc1)NCCc1c(-c2ccc(F)cc2)[nH]c2c(F)cc(F)cc12` [Compound 395] cannot be ordered by IC50: greater than 1000 nM for the first, greater than 1000 nM for the second.

`C[C@@H](O)[C@@H](CO)NC(=O)OCCc1c(-c2ccc(F)cc2)[nH]c2c(F)cc(F)cc12` [Compound 454] and `CC(C)C(CO)NC(=O)OCCc1c(-c2ccc(F)cc2)[nH]c2c(F)cc(F)cc12` (stereo not drawn) [Compound 467] fall in the same range of IC50: 250 to 1000 nM for the first, 250 to 1000 nM for the second.

`Cc1ccc(C(=O)NCCc2c(-c3ccc(F)cc3)[nH]c3c(F)cc(F)cc23)o1` [Compound 393] and `O=C(NCCc1c(-c2ccc(F)cc2)[nH]c2c(F)cc(F)cc12)c1cc[nH]n1` [Compound 351] cannot be ordered by IC50: greater than 1000 nM for the first, greater than 1000 nM for the second.

`NC(=O)C1(C(=O)NCCc2c(-c3ccc(F)cc3)[nH]c3c(F)cc(F)cc23)CC1` [Compound 339] and `O=C(NCCc1c(-c2ccc(F)cc2)[nH]c2c(F)cc(F)cc12)C1(O)CC1` [Compound 360] fall in the same range of IC50: 250 to 1000 nM for the first, 250 to 1000 nM for the second.

`NC(=O)CNC(=O)CCCc1c(-c2ccc(F)cc2)[nH]c2c(F)cc(F)cc12` [Compound 246] and `NC(=O)CCCc1c(-c2ccc(F)cc2)[nH]c2c(F)cc(F)cc12` [Compound 243] cannot be ordered by IC50: greater than 1000 nM for the first, greater than 1000 nM for the second.

Compared with `O=C(CCc1c(-c2ccc(F)cc2)[nH]c2c(F)cc(Cl)cc12)NC(CO)(CO)CO` [Compound 195], `O=C(CCc1c(-c2ccc(F)cc2)[nH]c2c(F)cc(Cl)cc12)NC[C@@H](O)CO` [Compound 210] is higher in IC50: 250 to 1000 nM for the first, greater than 1000 nM for the second.

`CC(C)(CF)C(=O)NCCc1c(-c2ccc(F)cc2)[nH]c2c(F)cc(F)cc12` [Compound 405] and `C[C@H](O)C(=O)NCCc1c(-c2ccc(F)cc2)[nH]c2c(F)cc(F)cc12` [Compound 362] fall in the same range of IC50: 250 to 1000 nM for the first, 250 to 1000 nM for the second.

`O=C(NCCc1c(-c2ccc(F)cc2)[nH]c2c(F)cc(F)cc12)c1cnc(C(F)(F)F)s1` [Compound 367] and `O=C(NCCc1c(-c2ccc(F)cc2)[nH]c2c(F)cc(F)cc12)c1cnccn1` [Compound 398] cannot be ordered by IC50: greater than 1000 nM for the first, greater than 1000 nM for the second.

`NC(=O)[C@H](CO)NC(=O)CCc1c(-c2ccc(F)cc2)[nH]c2c(F)cc(Cl)cc12` [Compound 206] and `NC(=O)[C@H](CO)NC(=O)OCCc1c(-c2ccc(F)cc2)[nH]c2c(F)cc(F)cc12` [Compound 475] cannot be ordered by IC50: greater than 1000 nM for the first, greater than 1000 nM for the second.

`COc1ccc2[nH]c(-c3ccc(F)cc3)c(CCNC(=O)OC(C)(C)C)c2c1` [Compound 430, tert-butyl N-[2-[2-(4-fluorophenyl)-5-methoxy-1H-indol-3-yl]ethyl]carbamate] and `CC(C)(C)OC(=O)N[C@H](CO)C(=O)NCCc1c(-c2ccc(F)cc2)[nH]c2c(F)cc(F)cc12` [Compound 305, tert-butyl N-[(1R)-2-[2-[5,7-difluoro-2-(4-fluorophenyl)-1H-indol-3-yl]ethylamino]-1-(hydroxymethyl)-2-oxo-ethyl]carbamate] cannot be ordered by IC50: greater than 1000 nM for the first, greater than 1000 nM for the second.

Compared with `O=C(NCC(O)CO)OCCc1c(-c2ccc(F)cc2)[nH]c2c(F)cc(F)cc12` (stereo not drawn) [Compound 468], `C[C@@H](O)CNC(=O)OCCc1c(-c2ccc(F)cc2)[nH]c2c(F)cc(F)cc12` [Compound 450] is lower in IC50: 250 to 1000 nM for the first, less than 250 nM for the second.

Compared with `C[C@@H](CO)NC(=O)CCCc1c(-c2ccc(F)cc2)[nH]c2c(F)cc(F)cc12` [Compound 240], `C[C@H](N)C(=O)NCCc1c(-c2ccc(F)cc2)[nH]c2c(F)cc(F)cc12` [Compound 363] is higher in IC50: 250 to 1000 nM for the first, greater than 1000 nM for the second. The first is the more potent here.

First: CC(C)(O)CCNC(=O)NCCc1c(-c2ccc(F)cc2)[nH]c2c(F)cc(F)cc12 [Compound 270]
Second: CC(C)(O)CCNC(=O)OCCc1c(-c2ccc(F)cc2)[nH]c2c(F)cc(F)cc12 [Compound 458]
The IC50 of the first is higher: greater than 1000 nM for the first, 250 to 1000 nM for the second. The second is the more potent here.

`O=C1C[C@H](NC(=O)CCCc2c(-c3ccc(F)cc3)[nH]c3c(F)cc(F)cc23)C(=O)N1` [Compound 245] and `O=C1C[C@@H](NC(=O)CCCc2c(-c3ccc(F)cc3)[nH]c3c(F)cc(F)cc23)C(=O)N1` [Compound 242] cannot be ordered by IC50: greater than 1000 nM for the first, greater than 1000 nM for the second.

`CC(C)(C)[C@H](CO)NC(=O)NCCc1c(-c2ccc(F)cc2)[nH]c2c(F)cc(F)cc12` [Compound 265] and `C[C@H](NC(=O)NCCc1c(-c2ccc(F)cc2)[nH]c2c(F)cc(F)cc12)C(=O)O` [Compound 281] cannot be ordered by IC50: greater than 1000 nM for the first, greater than 1000 nM for the second.

`CCOCCc1c(-c2ccc(F)cc2)[nH]c2c(F)cc(F)cc12` [Compound 503, 3-(2-ethoxyethyl)-5,7-difluoro-2-(4-fluorophenyl)-1H-indole] and `CNCCc1c(-c2ccc(F)cc2)[nH]c2c(F)cc(F)cc12` [Compound 428, 2-[5,7-difluoro-2-(4-fluorophenyl)-1H-indol-3-yl]-N-methyl-ethanamine] cannot be ordered by IC50: greater than 1000 nM for the first, greater than 1000 nM for the second.

First: NC(=O)CNC(=O)OCCc1c(-c2ccc(F)cc2)[nH]c2c(F)cc(F)cc12 [Compound 452]
Second: CC(O)CCNC(=O)OCCc1c(-c2ccc(F)cc2)[nH]c2c(F)cc(F)cc12 (stereo not drawn) [Compound 483]
The IC50 of the first is lower: less than 250 nM for the first, greater than 1000 nM for the second.

`O=C1CCC(C(=O)NCCc2c(-c3ccc(F)cc3)[nH]c3c(F)cc(F)cc23)CN1` (stereo not drawn) [Compound 332] and `O=C1CC(C(=O)NCCc2c(-c3ccc(F)cc3)[nH]c3c(F)cc(F)cc23)CN1` (stereo not drawn) [Compound 340] cannot be ordered by IC50: greater than 1000 nM for the first, greater than 1000 nM for the second.

`O=C(NCCc1c(-c2ccc(F)cc2)[nH]c2c(F)cc(F)cc12)N[C@H]1CCNC1=O` [Compound 277] and `O=C1NCCCC1C(=O)NCCc1c(-c2ccc(F)cc2)[nH]c2c(F)cc(F)cc12` (stereo not drawn) [Compound 330] cannot be ordered by IC50: greater than 1000 nM for the first, greater than 1000 nM for the second.

First: N#CC(NC(=O)CCc1c(-c2ccc(F)cc2)[nH]c2c(F)cc(F)cc12)C(N)=O (stereo not drawn) [Compound 127]
Second: CC(=O)NCC(=O)NCCc1c(-c2ccc(F)cc2)[nH]c2c(F)cc(F)cc12 [Compound 344]
The IC50 of the first is lower: 250 to 1000 nM for the first, greater than 1000 nM for the second.

`O=C(NCCc1c(-c2ccc(F)cc2)[nH]c2c(F)cc(F)cc12)c1ccccn1` [Compound 403] and `O=C(NCCc1c(-c2ccc(F)cc2)[nH]c2c(F)cc(F)cc12)c1cccnn1` [Compound 396] cannot be ordered by IC50: greater than 1000 nM for the first, greater than 1000 nM for the second.

`O=C(NCCc1c(-c2ccc(F)cc2)[nH]c2c(F)cc(F)cc12)[C@H]1CC[C@@H](O)CC1` [Compound 324] and `O=C(NCCc1c(-c2ccc(F)cc2)[nH]c2c(F)cc(F)cc12)NCC1CCOCC1` [Compound 291] cannot be ordered by IC50: greater than 1000 nM for the first, greater than 1000 nM for the second.

`O=C(NCCc1c(-c2ccc(F)cc2)[nH]c2c(F)cc(F)cc12)NCC1(O)CCC1` [Compound 275] and `O=C(NCCc1c(-c2ccc(F)cc2)[nH]c2c(F)cc(F)cc12)NCCS(=O)(=O)O` [Compound 263] cannot be ordered by IC50: greater than 1000 nM for the first, greater than 1000 nM for the second.
